Laboratory results taken from ChEMBL document CHEMBL4184267, “Novel naftopidil derivatives containing methyl phenylacetate and their blocking effects on α1D/1A-adrenoreceptor subtypes” (Bioorg Med Chem Lett, 2018).

Key:
[1] = tested on: Thoracic aorta; assay: Vasodilatory activity in New Zealand White rabbit thoracic aorta assessed as relaxation of (-)-noradrenaline-induced contractile response at 1 uM relative to untreated control; assay type: functional, Oryctolagus cuniculus; design: scale not given: the % may be the effect or the level left
[2] = tested on: Thoracic aorta; assay: Vasodilatory activity in New Zealand White rabbit thoracic aorta assessed as relaxation of (-)-noradrenaline-induced contractile response at 0.1 uM relative to untreated control; assay type: functional, Oryctolagus cuniculus; design: scale not given: the % may be the effect or the level left
[3] = tested on: Thoracic aorta; assay: Vasodilatory activity in New Zealand White rabbit thoracic aorta assessed as relaxation of (-)-noradrenaline-induced contractile response at 10 uM relative to untreated control; assay type: functional, Oryctolagus cuniculus; design: scale not given: the % may be the effect or the level left
[4] = molecular target: T1, Alpha-1A adrenergic receptor (Rattus norvegicus, UniProt P43140); assay: Antagonist activity at alpha1A-adrenoreceptor in Sprague-Dawley rat vas deferens assessed as relaxation of (-)-noradrenaline-induced contractile response; assay type: functional; settings: read-out: pA2 (converted)
T1 sequence (P43140 whole entry): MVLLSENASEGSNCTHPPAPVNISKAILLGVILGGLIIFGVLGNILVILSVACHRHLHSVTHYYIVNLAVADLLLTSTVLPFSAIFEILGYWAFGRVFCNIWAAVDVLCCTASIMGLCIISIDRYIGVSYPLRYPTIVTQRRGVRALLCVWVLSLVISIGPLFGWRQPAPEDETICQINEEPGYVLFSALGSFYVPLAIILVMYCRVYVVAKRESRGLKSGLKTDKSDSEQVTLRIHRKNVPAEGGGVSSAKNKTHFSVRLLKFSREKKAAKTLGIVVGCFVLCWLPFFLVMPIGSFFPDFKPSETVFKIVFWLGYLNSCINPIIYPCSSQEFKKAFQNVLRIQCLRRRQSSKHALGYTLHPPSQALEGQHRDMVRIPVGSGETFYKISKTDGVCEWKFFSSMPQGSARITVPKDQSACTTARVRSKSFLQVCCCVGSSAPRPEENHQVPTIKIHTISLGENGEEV

[5] = molecular target: T2, Alpha-1D adrenergic receptor (Rattus norvegicus, UniProt P23944); assay: Antagonist activity at alpha1D-adrenoreceptor in Sprague-Dawley rat thoracic aorta assessed as relaxation of (-)-noradrenaline-induced contractile response; assay type: functional; settings: read-out: pA2 (converted)
T2 sequence (P23944 whole entry): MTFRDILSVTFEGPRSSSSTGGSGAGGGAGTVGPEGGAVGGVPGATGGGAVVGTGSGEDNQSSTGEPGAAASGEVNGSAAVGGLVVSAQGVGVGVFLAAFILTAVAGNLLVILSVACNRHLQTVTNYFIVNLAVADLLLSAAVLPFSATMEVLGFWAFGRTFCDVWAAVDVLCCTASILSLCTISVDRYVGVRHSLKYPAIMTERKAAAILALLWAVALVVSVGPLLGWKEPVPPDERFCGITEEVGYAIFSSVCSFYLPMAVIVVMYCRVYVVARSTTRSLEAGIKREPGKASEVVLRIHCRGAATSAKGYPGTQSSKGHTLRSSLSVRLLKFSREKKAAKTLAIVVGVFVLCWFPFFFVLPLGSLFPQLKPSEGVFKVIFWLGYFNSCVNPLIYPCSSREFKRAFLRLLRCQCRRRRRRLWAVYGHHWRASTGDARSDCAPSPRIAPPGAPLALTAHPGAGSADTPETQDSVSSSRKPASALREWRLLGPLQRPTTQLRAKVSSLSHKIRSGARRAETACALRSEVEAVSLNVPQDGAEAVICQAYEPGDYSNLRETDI

[6] = molecular target: T3, Alpha-1B adrenergic receptor (Rattus norvegicus, UniProt P15823); assay: Antagonist activity at alpha1B-adrenoreceptor in Sprague-Dawley rat spleen assessed as relaxation of (-)-noradrenaline-induced contractile response; assay type: functional; settings: read-out: pA2 (converted)
T3 sequence (P15823 whole entry): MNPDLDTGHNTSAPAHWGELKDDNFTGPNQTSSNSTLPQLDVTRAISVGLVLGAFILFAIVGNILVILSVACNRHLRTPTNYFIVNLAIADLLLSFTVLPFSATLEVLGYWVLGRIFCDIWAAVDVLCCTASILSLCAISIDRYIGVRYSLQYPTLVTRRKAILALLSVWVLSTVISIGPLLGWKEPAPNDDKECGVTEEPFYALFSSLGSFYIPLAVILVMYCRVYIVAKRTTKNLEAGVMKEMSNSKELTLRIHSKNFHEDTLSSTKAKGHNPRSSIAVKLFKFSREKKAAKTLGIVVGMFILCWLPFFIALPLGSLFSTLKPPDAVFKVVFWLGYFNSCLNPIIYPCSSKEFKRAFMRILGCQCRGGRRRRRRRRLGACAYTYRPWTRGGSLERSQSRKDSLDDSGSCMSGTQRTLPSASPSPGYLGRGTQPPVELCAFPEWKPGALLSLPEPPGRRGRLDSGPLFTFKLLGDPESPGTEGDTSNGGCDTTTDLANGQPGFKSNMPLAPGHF

[7] = molecular target: T4, Alpha-1D adrenergic receptor (Homo sapiens, UniProt P25100); assay: Displacement of [125I-HEAT from human alpha1D-adrenoreceptor expressed in CHOK1 cell membranes incubated for 60 mins
T4 sequence (P25100 whole entry): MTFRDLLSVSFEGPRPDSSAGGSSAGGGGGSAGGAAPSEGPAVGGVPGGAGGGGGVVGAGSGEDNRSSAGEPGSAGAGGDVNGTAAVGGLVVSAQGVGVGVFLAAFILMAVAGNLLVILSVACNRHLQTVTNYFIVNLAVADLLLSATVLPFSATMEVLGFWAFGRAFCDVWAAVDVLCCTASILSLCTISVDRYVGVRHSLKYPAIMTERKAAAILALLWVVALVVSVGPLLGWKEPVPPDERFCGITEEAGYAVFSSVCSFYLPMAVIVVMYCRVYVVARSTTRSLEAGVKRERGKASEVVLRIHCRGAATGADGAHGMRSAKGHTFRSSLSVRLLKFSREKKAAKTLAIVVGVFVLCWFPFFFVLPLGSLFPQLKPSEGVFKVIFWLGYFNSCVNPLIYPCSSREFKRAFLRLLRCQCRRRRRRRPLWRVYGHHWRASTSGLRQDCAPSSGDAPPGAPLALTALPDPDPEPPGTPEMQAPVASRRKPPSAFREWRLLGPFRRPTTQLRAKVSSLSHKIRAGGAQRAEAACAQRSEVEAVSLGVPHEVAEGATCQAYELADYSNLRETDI

[8] = molecular target: T5, Alpha-1B adrenergic receptor (Homo sapiens, UniProt P35368); assay: Displacement of [125I-HEAT from human alpha1B-adrenoreceptor expressed in CHOK1 cell membranes incubated for 60 mins
T5 sequence (P35368 whole entry): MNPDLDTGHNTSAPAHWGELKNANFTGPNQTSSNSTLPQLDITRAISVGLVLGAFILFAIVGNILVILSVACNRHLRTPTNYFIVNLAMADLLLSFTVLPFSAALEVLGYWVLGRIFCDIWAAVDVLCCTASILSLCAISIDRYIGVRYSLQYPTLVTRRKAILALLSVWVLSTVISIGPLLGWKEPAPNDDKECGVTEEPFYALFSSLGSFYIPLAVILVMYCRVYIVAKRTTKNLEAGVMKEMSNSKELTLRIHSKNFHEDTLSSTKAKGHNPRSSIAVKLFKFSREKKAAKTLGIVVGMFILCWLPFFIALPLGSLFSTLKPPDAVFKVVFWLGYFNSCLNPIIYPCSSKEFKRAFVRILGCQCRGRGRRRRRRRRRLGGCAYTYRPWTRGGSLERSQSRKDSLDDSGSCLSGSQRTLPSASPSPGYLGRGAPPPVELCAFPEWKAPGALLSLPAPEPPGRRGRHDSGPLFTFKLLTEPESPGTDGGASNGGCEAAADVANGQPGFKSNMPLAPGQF

Kb [4] [µM]	Kb [5] [µM]	Kb [6] [µM]	Ki [7] [µM]	Ki [8] [µM]	Structure (SMILES)	Activity [1] [%]	Activity [2] [%]	Activity [3] [%]
–	–	–	–	–	COC(=O)Cc1ccc(OCC(O)CN2CCN(c3ccc(C)c(C)c3)CC2)cc1 (stereo not drawn)	28.4	8.9	70.2
–	–	–	–	–	COC(=O)Cc1ccc(OCC(O)CN2CCN(c3ccc(OC)cc3)CC2)cc1 (stereo not drawn)	7	6.3	15.8
–	–	–	–	–	COC(=O)Cc1ccc(OCC(O)CN2CCN(c3ccc(Br)cc3)CC2)cc1 (stereo not drawn)	16.6	7.9	43.5
0.0631	0.038	0.447	–	–	COC(=O)Cc1ccc(OC[C@H](O)CN2CCN(c3cc(C)ccc3C)CC2)cc1	–	–	–
0.49	0.02	0.324	–	–	COC(=O)Cc1ccc(OCC(O)CN2CCN(c3ccccc3C)CC2)cc1 (stereo not drawn)	62.3	27.3	99.3
–	–	–	–	–	COC(=O)Cc1ccc(OCC(O)CN2CCN(c3ccc(C)c(Cl)c3)CC2)cc1 (stereo not drawn)	25.9	19.5	38.7
–	–	–	–	–	CCOc1cccc(N2CCN(CC(O)COc3ccc(CC(=O)OC)cc3)CC2)c1 (stereo not drawn)	10.2	6.1	14.9
–	–	–	–	–	COC(=O)Cc1ccc(OCC(O)CN2CCN(c3ccc(C)cc3)CC2)cc1 (stereo not drawn)	28.7	15.3	56.7
–	–	–	–	–	COC(=O)Cc1ccc(OCC(O)CN2CCN(c3cccc(C)c3)CC2)cc1 (stereo not drawn)	36.9	14.8	63.5
–	–	–	–	–	COC(=O)Cc1ccc(OCC(O)CN2CCN(c3ccc(C)cc3C)CC2)cc1 (stereo not drawn)	43.3	13.7	92.7
0.0389	0.0447	0.759	–	–	COC(=O)Cc1ccc(OCC(O)CN2CCN(c3cc(C)ccc3C)CC2)cc1 (stereo not drawn)	66.2	24.3	100
–	–	–	–	–	COC(=O)Cc1ccc(OCC(O)CN2CCN(c3cc(C)cc(C)c3)CC2)cc1 (stereo not drawn)	18.6	5.8	61.4
–	–	–	–	–	COC(=O)Cc1ccc(OCC(O)CN2CCN(c3cccc(OC)c3)CC2)cc1 (stereo not drawn)	23.7	13	39.8
0.0302	0.0155	0.269	–	–	COC(=O)Cc1ccc(OC[C@@H](O)CN2CCN(c3cc(C)ccc3C)CC2)cc1	–	–	–
–	–	–	–	–	COC(=O)Cc1ccc(OCC(O)CN2CCN(c3cccc(C)c3C)CC2)cc1 (stereo not drawn)	43.3	12.5	81.7
0.148	0.0776	0.603	–	–	COC(=O)Cc1ccc(OCC(O)CN2CCN(c3ccccc3OC)CC2)cc1 (stereo not drawn)	71.1	27.6	100
–	–	–	–	–	COC(=O)Cc1ccc(OCC(O)CN2CCN(c3cc(Cl)c(OC)cc3OC)CC2)cc1 (stereo not drawn)	20.4	8.2	46.1
–	–	–	–	–	COC(=O)Cc1ccc(OCC(O)CN2CCN(c3ccccc3Cl)CC2)cc1 (stereo not drawn)	58.7	29	98.3
–	–	–	0.0012	0.02	COc1ccccc1N1CCN(CC(O)COc2cccc3ccccc23)CC1 (stereo not drawn) [NAFTOPIDIL]	86.9	25.1	97.8
